According to the NIST ThermoML archive (doi:10.1016/j.fluid.2014.06.024):

Assay: molar heat capacity at constant pressure; xn = mol fraction of the nth substance listed
Conditions: 101 kPa, Liquid, Small sample (50 mg) DSC

C1CCOCC1 [tetrahydropyran] + c1ccccc1
molar heat capacity at constant pressure [J/K/mol]
Conditions	298.15 K	303.15 K	308.15 K
x1 = 0.0859	136.89	138.21	139.54
x1 = 0.1279	137.71	139.06	140.44
x1 = 0.1598	138.32	139.7	141.1
x1 = 0.1982	139.05	140.45	141.88
x1 = 0.2254	139.56	140.97	142.43
x1 = 0.2657	140.3	141.72	143.21
x1 = 0.3017	140.94	142.38	143.89
x1 = 0.3509	141.8	143.26	144.8
x1 = 0.3898	142.45	143.93	145.5
x1 = 0.4176	142.91	144.39	145.99
x1 = 0.4428	143.31	144.81	146.42
x1 = 0.4987	144.17	145.7	147.36
x1 = 0.5234	144.54	146.08	147.76
x1 = 0.5592	145.05	146.61	148.32
x1 = 0.5983	145.58	147.17	148.91
x1 = 0.6132	145.78	147.37	149.13
x1 = 0.6478	146.23	147.84	149.63
x1 = 0.6876	146.71	148.35	150.17
x1 = 0.7231	147.12	148.78	150.63
x1 = 0.7623	147.55	149.22	151.1
x1 = 0.7905	147.85	149.53	151.42
x1 = 0.8217	148.15	149.84	151.75
x1 = 0.8507	148.43	150.12	152.04
x1 = 0.9003	148.86	150.54	152.47
